From PubChem BioAssay AID328 (DTP/NCI, 2004)
Several values for one entry are separate records, joined by “and”; a condition that tells them apart may be missing. Equal values may be shown once. Toxic doses and inconclusive results are not listed.

System: BDF1 mice, P388 leukemia ip, median survival T/C
Test: NCI In Vivo Anticancer Drug Screen. Data for tumor model P388 Leukemia (intraperitoneal) in B6D2F1 (BDF1) mice
Details: endpoint: median survival time, higher = longer survival
Summary of the method: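 Compound-treated tumour-bearing mice were compared with vehicle-treated controls. Survival was recorded, and the value is the treated-group measurement divided by the control-group measurement (T/C).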

[1] = dose: 200.0 mg/kg/injection, schedule: Q01DX009 (ip), vehicle: Klucel (hydroxypropylcellulose) (HPC)
[2] = dose: 100.0 mg/kg/injection, schedule: Q04DX003 (ip), vehicle: saline sonified
[3] = dose: 200.0 mg/kg/injection, schedule: Q04DX003 (ip), vehicle: saline sonified
[4] = dose: 50.0 mg/kg/injection, schedule: Q01DX009 (ip), vehicle: saline with Tween-80
[5] = dose: 100.0 mg/kg/injection, schedule: Q04DX003 (ip), vehicle: saline with Tween-80
[6] = dose: 200.0 mg/kg/injection, schedule: Q04DX003 (ip), vehicle: saline with Tween-80
[7] = dose: 400.0 mg/kg/injection, schedule: Q04DX003 (ip), vehicle: saline with Tween-80
[8] = dose: 25.0 mg/kg/injection, schedule: Q01DX009 (ip), vehicle: saline with Tween-80
[9] = dose: 50.0 mg/kg/injection, schedule: Q04DX003 (ip), vehicle: saline with Tween-80
[10] = dose: 100.0 mg/kg/injection, schedule: Q01DX009 (ip), vehicle: saline with Tween-80
[11] = dose: 200.0 mg/kg/injection, schedule: Q01DX009 (ip), vehicle: saline with Tween-80
[12] = dose: 6.25 mg/kg/injection, schedule: Q01DX009 (ip), vehicle: saline with Tween-80
[13] = dose: 12.5 mg/kg/injection, schedule: Q01DX009 (ip), vehicle: saline with Tween-80

With `Cc1ccc(S(=O)(=O)NCC(C)C)cc1` the T/C (dose: 50.0 mg/kg/injection, schedule: Q01DX009 (ip), vehicle: Klucel (hydroxypropylcellulose) (HPC)) was 94 % of control, the T/C (dose: 100.0 mg/kg/injection, schedule: Q01DX009 (ip), vehicle: Klucel (hydroxypropylcellulose) (HPC)) was 86 % of control and the T/C [1] was 104 % of control. The T/C (dose: 400.0 mg/kg/injection, schedule: Q01DX009 (ip), vehicle: Klucel (hydroxypropylcellulose) (HPC)) was 102 % of control.

In the case of `COc1cc2c(cc1I)-c1c(cc(OC)c(OC)c1OC)CC[C@@H]2NC(C)=O`, the T/C [2] is reported as 100 % of control, the T/C [3] is reported as 108 % of control and the T/C (dose: 400.0 mg/kg/injection, schedule: Q04DX003 (ip), vehicle: saline sonified) is reported as 100 % of control.

In the case of `CCCOP(=S)(N1CC1C)N1CC1(C)C` (stereo not given), the T/C (dose: 33.0 mg/kg/injection, schedule: Q01DX009 (ip), vehicle: saline with Tween-80) is reported as 154 % of control, the T/C [4] is reported as 186 % of control and the T/C (dose: 75.0 mg/kg/injection, schedule: Q01DX009 (ip), vehicle: saline with Tween-80) is reported as 190 % of control. For the same compound, the T/C [5] was 159 % of control and 166 % of control, the T/C (dose: 150.0 mg/kg/injection, schedule: Q04DX003 (ip), vehicle: saline with Tween-80) was 208 % of control and the T/C [6] was 154 % of control.

`CC1NNC(=O)C1(Br)Br` (stereo not given) was tested, and the T/C (dose: 1.56 mg/kg/injection, schedule: Q01DX009 (ip), vehicle: gum acacia) was 113 % of control, the T/C (dose: 3.12 mg/kg/injection, schedule: Q01DX009 (ip), vehicle: gum acacia) was 113 % of control and the T/C (dose: 6.25 mg/kg/injection, schedule: Q01DX009 (ip), vehicle: gum acacia) was 94 % of control.

In the case of `O=Cc1[nH]c(=S)[nH]c(=O)c1Cc1ccc([N+](=O)[O-])cc1`, the T/C [5] is reported as 100 % of control, the T/C [6] is reported as 95 % of control and the T/C [7] is reported as 112 % of control.

`CC(CO)(CI)[n+]1ccccc1` (stereo not given) was tested, and the T/C [8] was 103 % of control, the T/C [4] was 107 % of control and the T/C [9] was 95 % of control. For the same compound, the T/C [5] was 100 % of control.

For `COC(=O)C12CCc3cc(OC)ccc3C1=CC(=O)C2` (stereo not given), the T/C [2] was 100 % of control and the T/C [3] was 95 % of control.

For `O=C(/C=C(/c1ccccc1)P(=O)(c1ccccc1)c1ccccc1)c1ccccc1`, the T/C [10] was 100 % of control, the T/C [11] was 95 % of control and the T/C (dose: 400.0 mg/kg/injection, schedule: Q01DX009 (ip), vehicle: saline with Tween-80) was 100 % of control.

In the case of `COc1ccc(CCCC(=O)O)cc1OC`, the T/C [4] is reported as 108 % of control, the T/C [10] is reported as 105 % of control and the T/C [11] is reported as 103 % of control.

For `CC1CC2CCCCN2O1` (stereo not given), the T/C (dose: 100.0 mg/kg/injection, schedule: Q04DX002 (ip), vehicle: saline with Tween-80) was 102 % of control, the T/C (dose: 200.0 mg/kg/injection, schedule: Q04DX002 (ip), vehicle: saline with Tween-80) was 103 % of control and the T/C (dose: 400.0 mg/kg/injection, schedule: Q04DX002 (ip), vehicle: saline with Tween-80) was 105 % of control.

For `NC(=O)SCC(N)C(=O)O` (stereo not given), the T/C (dose: 50.0 mg/kg/injection, schedule: Q01DX009 (ip), vehicle: saline) was 115 % of control, the T/C (dose: 100.0 mg/kg/injection, schedule: Q01DX009 (ip), vehicle: saline) was 115 % of control and the T/C (dose: 200.0 mg/kg/injection, schedule: Q01DX009 (ip), vehicle: saline) was 118 % of control.

`N#Cc1c(NN)n(C2OC(CO)C(O)C2O)c2ncnc(N)c12` (stereo not given) was tested, and the T/C (dose: 50.0 mg/kg/injection, schedule: Q04DX003 (ip), vehicle: saline) was 100 % of control and the T/C (dose: 83.0 mg/kg/injection, schedule: Q04DX003 (ip), vehicle: saline) was 100 % of control.

For `Nc1ccc(Oc2ccc(Cl)cc2)c(Cl)c1`, the T/C [5] was 100 % of control, the T/C [6] was 95 % of control and the T/C [7] was 104 % of control.

For `CCCCCCCCCCCCn1c(C)nc2ccccc21`, the T/C (dose: 10.0 mg/kg/injection, schedule: Q04DX003 (ip), vehicle: saline) was 105 % of control, the T/C (dose: 20.0 mg/kg/injection, schedule: Q04DX003 (ip), vehicle: saline) was 120 % of control and the T/C (dose: 40.0 mg/kg/injection, schedule: Q04DX003 (ip), vehicle: saline) was 115 % of control. For the same compound, the T/C (dose: 60.0 mg/kg/injection, schedule: Q04DX003 (ip), vehicle: saline) was 109 % of control, the T/C (dose: 90.0 mg/kg/injection, schedule: Q04DX003 (ip), vehicle: saline) was 104 % of control and the T/C (dose: 135.0 mg/kg/injection, schedule: Q04DX003 (ip), vehicle: saline) was 86 % of control. For the same compound, the T/C (dose: 200.0 mg/kg/injection, schedule: Q04DX003 (ip), vehicle: saline) was 105 % of control and the T/C (dose: 305.0 mg/kg/injection, schedule: Q04DX003 (ip), vehicle: saline) was 110 % of control.

`NC(=S)N/N=C\c1ccc(/C=N/NC(N)=S)cc1` was tested, and the T/C (dose: 25.0 mg/kg/injection, schedule: Q04DX003 (ip), vehicle: saline with Tween-80) was 111 % of control, the T/C [9] was 108 % of control and the T/C [5] was 100 % of control.

`O=C(C=C(C(F)(F)F)C(F)(F)F)c1cccc(Cl)c1` was tested, and the T/C [12] was 122 % of control and the T/C [13] was 100 % of control.

With `Nc1nc(N)c(-c2ccc(Cl)c(Cl)c2)c(COc2cccc(CNC(=O)c3cccc(S(=O)(=O)F)c3)c2)n1` the T/C (dose: 132.0 mg/kg/injection, schedule: Q04DX003 (ip), vehicle: Klucel (hydroxypropylcellulose) (HPC)) was 109 % of control, the T/C [1] was 150 % of control and the T/C (dose: 200.0 mg/kg/injection, schedule: Q04DX003 (ip), vehicle: Klucel (hydroxypropylcellulose) (HPC)) was 119 % of control. For the same compound, the T/C (dose: 300.0 mg/kg/injection, schedule: Q01DX009 (ip), vehicle: Klucel (hydroxypropylcellulose) (HPC)) was 155 % of control.

With `COc1cccc(/C=N/NC(=O)C2CCN(C(=S)NC3CC4C=CC3C4)CC2)c1O` (stereo not given) the T/C (dose: 1.56 mg/kg/injection, schedule: Q01DX009 (ip), vehicle: saline with Tween-80) was 90 % of control, the T/C (dose: 3.12 mg/kg/injection, schedule: Q01DX009 (ip), vehicle: saline with Tween-80) was 89 % of control and the T/C [12] was 87 % of control and 92 % of control. The T/C [13] was 89 % of control, the T/C [8] was 92 % of control and the T/C [4] was 101 % of control.

For `Clc1nc2nnnn2c2ccccc12`, the T/C (dose: 20.0 mg/kg/injection, schedule: Q01DX009 (ip), vehicle: saline) was 94 % of control and the T/C (dose: 40.0 mg/kg/injection, schedule: Q01DX009 (ip), vehicle: saline) was 95 % of control.

With `C=C1C(=O)OC2/C=C(/C)C(OC(C)=O)CC(O)/C(C)=C\C(OC(=O)/C(C)=C\C)C12` (stereo not given) the T/C (dose: 2.5 mg/kg/injection, schedule: Q01DX009 (ip), vehicle: saline + alcohol) was 100 % of control, the T/C (dose: 5.0 mg/kg/injection, schedule: Q01DX009 (ip), vehicle: saline + alcohol) was 118 % of control and the T/C (dose: 10.0 mg/kg/injection, schedule: Q01DX009 (ip), vehicle: saline + alcohol) was 109 % of control. For the same compound, the T/C (dose: 20.0 mg/kg/injection, schedule: Q01DX009 (ip), vehicle: saline + alcohol) was 109 % of control, the T/C (dose: 27.0 mg/kg/injection, schedule: Q01DX010 (ip), vehicle: saline) was 115 % of control and the T/C (dose: 40.0 mg/kg/injection, schedule: Q01DX009 (ip), vehicle: saline + alcohol) was 122 % of control. For the same compound, the T/C (dose: 40.0 mg/kg/injection, schedule: Q01DX010 (ip), vehicle: saline) was 110 % of control and the T/C (dose: 80.0 mg/kg/injection, schedule: Q01DX009 (ip), vehicle: saline + alcohol) was 86 % of control.

`O=C(CO)c1ccc([N+](=O)[O-])cc1` was tested, and the T/C [4] was 106 % of control.

For `CCCCCCCCCCCC(c1ccccc1)[N+](C)(C)C` (stereo not given), the T/C (dose: 1.0 mg/kg/injection, schedule: Q01DX010 (ip), vehicle: saline) was 100 % of control, the T/C (dose: 2.0 mg/kg/injection, schedule: Q01DX010 (ip), vehicle: saline) was 104 % of control and the T/C (dose: 4.0 mg/kg/injection, schedule: Q01DX010 (ip), vehicle: saline) was 116 % of control. For the same compound, the T/C (dose: 4.0 mg/kg/injection, schedule: Q04DX003 (ip), vehicle: saline) was 113 % of control, the T/C (dose: 8.0 mg/kg/injection, schedule: Q04DX003 (ip), vehicle: saline) was 118 % of control and the T/C (dose: 16.0 mg/kg/injection, schedule: Q04DX003 (ip), vehicle: saline) was 100 % of control.

For `O=C1c2ccccc2C(=O)N1c1ccc(S(=O)(=O)c2ccc(N3C(=O)c4ccccc4C3=O)cc2)cc1`, the T/C (dose: 87.5 mg/kg/injection, schedule: Q01DX009 (ip), vehicle: saline with Tween-80) was 104 % of control, the T/C (dose: 175.0 mg/kg/injection, schedule: Q01DX009 (ip), vehicle: saline with Tween-80) was 100 % of control and the T/C (dose: 350.0 mg/kg/injection, schedule: Q01DX009 (ip), vehicle: saline with Tween-80) was 98 % of control.
